System: H3K27 acetylation
Test: Flow cytometry for H3K27ac after in vitro culture with inhibitors
Type: cell-based, mouse
Description: Data are normalized to viable cell number and z-scores per metabolite. […] P=two-sided Student's t-test. The data are presented as the mean±SEM and individual data points for each animal. Cross indicates death of the animal. […] P=two-sided Student's t-test. Shown are the mean±SD and individual data points. […] Data are presented as mean±SD and individual data points. […] P=paired two-sided Student's t-test. Data are presented as the mean±SD. […] Data was normalized as in (a). P=two-sided Student's t-test. The data are presented as the mean±SEM. […] Experiment as in (h) (n=3 mice genotype). Data was normalized as in (a). P=two-sided Student's t-test. Data are presented as the mean±SD. FIGS. 3-D, Representative data from two independent experiments with n=3 biological replicates per group. FIG. 3E, Representative data from two independent experiments with two biological replicates per group. FIG. 3F, Representative data from two independent experiments. FIG. 3G, Representative data from two independent experiments with three biological replicates per group. FIG. 3H, Representative data from one experiment with four biological replicates per group. FIG. 3I, Representative data from one experiment with three biological replicates per group FIGS. 4A-4H show ACLY is a critical effector molecule downstream of PD-1. […] ITK-SYK^+ cells were FACS-sorted from ITK-[…]2 mice on d5 after TAM and 12 h anti-PD-L1 or isotype control antibody treatment (i.p., 200 μg). P=paired two-sided Student's t-test. Data are presented as the mean±SD. […] Spleen-derived single-cell suspensions were FACS-sorted from ITK-[…]2 mice on d5 after TAM and cultured in vitro overnight with anti-PD-L1 or isotype control antibodies and the PI3K inhibitors (“iPI3K”) Wortmannin (20 nM), LY294002 (20 μM), or DMSO. […] Spleen-derived lymphocytes, FACS-sorted from ITK-[…]2 and ITK-[…]2; Pdcd1^-/- mice on d5 after TAM were incubated for three days in vitro. P=two-sided Student's t-test. Data are presented as the mean±SD. […] Protein lysates were generated after 48 h in vitro culture. RNP, ribonucleoprotein. […] P=two-sided Logrank-test. […] ITK-SYK^+ cells were FACS-sorted from ITK-[…]2 (“Pdcd1^+/+”) and ITK-[…]2; Pdcd1^-/- (“Pdcd1^-/-”) mice on d5 after TAM, fixed, and processed for anti-H3K27ac ChIP-seq analysis. ChIP-seq, chromatin immunoprecipitation sequencing; TSS, transcription start site. FIG. 4B, Representative data from three independent experiments with three biological replicates per group. FIG. 4C, Representative data from two independent experiments with two biological replicates. FIGS. 4D and 4E, Representative data from 3 independent experiments. FIGS. 4F and 4G, Data from one experiment with n=5 mice per group. […] (8752, CST), and assessed by flow cytometry. […]

| SMILES | H3K27 acetylation in Pdcd1 deficient lymphoma cells (2-DG 1 mM, 4 h in vitro vs DMSO, p=0.0003) | histone acetylation (H3K27ac) in ITK-SYK+ cells (BMS-303141 15 μM vs DMSO vehicle control, 3 hours, 4 h) | dependency of H3K27ac on ACLY function in cells with pharmacologically inactivated PD-1 pathway (anti-PD-L1 vs isotype control pretreated mice, BMS-303141 15 μM, p=0.0131) |
| --- | --- | --- | --- |
| O=CC[C@@H](O)[C@H](O)[C@H](O)CO [2-DG, 2-deoxy-D-glucose] | reduction in H3K27 acetylation |  |  |
| COc1ccc(-c2ccccc2)cc1NS(=O)(=O)c1cc(Cl)cc(Cl)c1O [BMS-303141] |  | reduced histone acetylation | significantly higher |
